Where “and” joins values, the source holds several entries; their conditions need not be identical. Equal entries are not always repeated.
Key:
[1] = tested on: IDH1(R132H) primary human AML cells; assay: Bone marrow AML clearance (flow cytometry), human AML PDx models in NSG mice; assay type: in vivo
Description: (§1) Compounds and Formulation. For in vivo studies, each test article is prepared at an appropriate concentration with vehicle. […] Compound A is prepared fresh at the appropriate concentrations with vehicle every 7 days and stored at 4° C. between doses. […] Cytarabine is prepared fresh weekly by dilution with sterile saline from stock solution of Cytarabine (injection 20 mg/mL, (Pfizer injectables')). Azacitidine (Sigma, Lot #MKBR7212) is formulated in sterile water and is prepared fresh daily immediately before dosing. In vivo human AML PDx models. […] Two models are used in the studies: […] As needed, splenocytes from tumor-bearing mice are used to propagate and expand the models, as described. Each test article is prepared as described above at an appropriate concentration with vehicle to give animals the doses tested in this study at a dosing volume of 10 μL/gram body weight. Mice receiving Compound A (PO, QD) are treated at the indicated doses for the duration of the study. The combination agents are dosed as follows: […] Treated mice are assessed in comparison to vehicle treated and naïve (non-tumor bearing) control mice. Body weight is recorded twice per week. […] AML PDx model propagation. […] Spleens are processed and splenocytes isolated as described below. Two hundred μL per subject of the splenocyte prep is injected IV (intravenous, tail vein) into recipient NSG mice. […] Once engraftment is confirmed, the mice are monitored biweekly until ready to be put on study. […] Submandibular blood is collected. Spleen/Splenocyte Processing and Prep. After excision, a spleen is weighed, and […] is placed in a standard sterile 15 mL polypropylene conical tube containing PBS, and placed on ice. […] The spleen is placed in ice cold sterile PBS in a 15 mL collection tube. The spleen is removed from the collection tube and placed in a 100 micron 50 mL conical tube cell strainer (BD Falcon #352360). The spleen is processed by gentle rubbing of the spleen tissue against the surface of the cell strainer with the end of a 5 mL syringe plunger in a circular motion. The surface of the strainer is rinsed with 10 mL room temperature sterile DPBS (HyClone SH30028) 3 times during the process. […] The cell pellet is collected by centrifugation (300×g) and washed three times with 30 mL sterile DPBS. The cells are counted and resuspended in DPBS at the desired implant concentration. Bone Marrow Collection. […] Flow cytometry analysis of human white cells. Submandibular blood samples from in vivo studies are collected. Fluor-conjugated antibody stains are added according to the manufacturer's instructions (anti-human CD33-PE (clone WM53, BD Cat #555450), anti-human CD14-APC (clone MφpP9, BD Cat #340436), anti-human CD15-V450 (clone HI98, BD Cat #561584), anti-human CD117-BV421 (clone YB5.B8, BD Cat #562434), anti-human […]7 (clone ICRF44, BD Cat #557754), anti-human […]7 (clone HI30, BD Cat #557748), and anti-human CD3-FITC (clone SK7, BD Cat #340542)). The samples are incubated for 30 minutes at room temperature, protected from light. After the incubation, 1.5 mL 1×BD Lyse/Fix (37° C., (BD #558049)) is added to each sample and incubated for 12 minutes at room temperature. The tubes are centrifuged at 300×g for 7 minutes. BD Lyse/Fix solution is aspirated and the cell pellet washed with stain/wash buffer 3 times (1 wash step consisted of: pellet resuspended in 3 mL stain/wash buffer, centrifuged at 300×g, aspirated wash). Fixed cells are then resuspended in 300 to 400 μL stain/wash buffer. Samples are analyzed on a Becton Dickinson FACSVerse Flow cytometer (Cat #651155 Serial #Z6511550447) using standard flow cytometry principles and techniques. Samples are analyzed on the same day as they are stained and fixed. Population gating and data analysis of percent population are performed in the FACSuite software on the FACSVerse cytometer. Percent population values from the data analysis are plotted in Graphpad Prism or in JMP13. […]

2-HG production = assay: Plasma 2-HG inhibition (LC-MS metabolite analysis in plasma of AML PDx model); assay type: in vivo, human
[2] = tested on: IDH1(R132H) primary human AML cells; assay: AML clearance in peripheral blood (flow cytometry, % hCD33+hCD45+ of total white cells), human AML PDx models in NSG mice; assay type: in vivo; conditions: for AML clearance (% hCD33 + hCD45+ (of total white cells)): 1 mg/kg Azacitidine, (QDx5, rest2)X2, 14 days off, each value one animal, 1 mg/kg
Description: as §1

[3] = tested on: IDH1(R132H) primary human AML cells; assay: AML cell differentiation in blood (flow cytometry, % hCD33+hCD11b+ of hCD45+ cells), human AML PDx models in NSG mice; assay type: in vivo; conditions: for AML cell differentiation (% hCD33 + hCD11b+ (of hCD45+ cells)): 1 mg/kg Azacitidine, (QDx5, rest2)X2, 14 days off, each value one animal, 1 mg/kg
Description: as §1

[4] = 1 mg/kg Azacitidine, (QD × 5, rest 2)x2, 14 days off, each line one animal
[5] = 1 mg/kg Azacitidine, IP, (QDx5, rest 2)x2 14 days off, each line one animal

**Q.** Which “Bone Marrow AML Clearance: % hCD33 + hCD45+ (% of white cells)” value [1, 4] does the source give for `Nc1ncn([C@@H]2O[C@H](CO)[C@@H](O)[C@H]2O)c(=O)n1` [Azacitidine, reference compound] here?
**A.** 49.81% and 60.61% and 72.4% and 43.12%

**Q.** And the “Bone Marrow AML Clearance: % hCD45+ (% of white cells)” value [1, 4]?
**A.** 49.85% and 61% and 72.52% and 43.15%

**Q.** What about the “% human AML cells in bone marrow (of white cells; lower = more clearance)” value ([1]; group G: azacitidine (1 mg/kg), vehicle 94%) of the same compound?
**A.** 55%

**Q.** And the “% Inhibition of 2-HG (plasma)” value (2-HG production; [5])?
**A.** 32.923% and 22.691% and 56.872% and 51.81% and 75.405% and 73.207% and 49.201%

**Q.** And the “Naive Subtracted 2-HG (plasma)” value (2-HG production; [5])?
**A.** 4.603 µM and 5.305 µM and 2.959 µM and 3.307 µM and 1.688 µM and 1.838 µM and 3.486 µM

**Q.** And the “Plasma 2-HG” value (2-HG production; [5])?
**A.** 7.539 µM and 8.241 µM and 5.896 µM and 6.243 µM and 4.624 µM and 4.775 µM and 6.422 µM

**Q.** And the “% plasma 2-HG (treatment group value)” value (2-HG production; group G: azacitidine (1 mg/kg), vehicle 100%)?
**A.** 48%

**Q.** And the “AML clearance (% hCD33 + hCD45+ (of total white cells))” value ([2]; Treatment day 2)?
**A.** 23.43% and 20.98% and 19.8% and 15.03% and 22.26% and 10.88% and 16.63%

**Q.** What about the “AML clearance (% hCD33 + hCD45+ (of total white cells))” value ([2]; Treatment day 15) of the same compound?
**A.** 33.19% and 44.55% and 30.95% and 35.67% and 30.39% and 28.23% and 30.75%

**Q.** And the “AML clearance (% hCD33 + hCD45+ (of total white cells))” value ([2]; Treatment day 28)?
**A.** 13.99% and 12.05% and 15.33% and 16.77% and 13.73% and 22.64% and 22.81%

**Q.** What about the “AML clearance (% hCD33 + hCD45+ (of total white cells))” value ([2]; Treatment day 43) of the same compound?
**A.** 32.23% and 23.27% and 18.57% and 27.48% and 11.38% and 25.34% and 20.44%

**Q.** And the “AML clearance (% hCD33 + hCD45+ (of total white cells))” value ([2]; Treatment day 58)?
**A.** 11.92% and 32.12% and 11.16% and 7.63% and 9.47% and 13.4%

**Q.** And the “AML clearance (% hCD33 + hCD45+ (of total white cells))” value ([2]; Treatment day 77)?
**A.** 12.91% and 26.37% and 20.18% and 12.58% and 15.11% and 11.64%

**Q.** And the “AML clearance (% hCD33 + hCD45+ (of total white cells))” value ([2]; Treatment day 98)?
**A.** 62.54% and 70.18% and 65.61% and 37.53% and 38.23%

**Q.** What about the “AML clearance (% hCD33 + hCD45+ (of total white cells))” value ([2]; Treatment day −19) of the same compound?
**A.** 7.65% and 4.33% and 3.14% and 6.28% and 3.24% and 2.46% and 2.87%

**Q.** And the “% peripheral blood AML cells (treatment group value)” value ([2]; day 43, group G: azacitidine (1 mg/kg), vehicle 71%)?
**A.** 22%

**Q.** And the “AML cell differentiation (% hCD33 + hCD11b+ (of hCD45+ cells))” value ([3]; Treatment day 2)?
**A.** 10.07% and 14.27% and 13.08% and 12.37% and 5.55% and 9.38% and 9.55%

**Q.** What about the “AML cell differentiation (% hCD33 + hCD11b+ (of hCD45+ cells))” value ([3]; Treatment day 15) of the same compound?
**A.** 12.12% and 16.08% and 11.64% and 18.36% and 13.75% and 11.72% and 18.15%

**Q.** What about the “AML cell differentiation (% hCD33 + hCD11b+ (of hCD45+ cells))” value ([3]; Treatment day 28) of the same compound?
**A.** 21.14% and 21.62% and 19.07% and 20.9% and 16.95% and 20.64% and 21.18%

**Q.** And the “AML cell differentiation (% hCD33 + hCD11b+ (of hCD45+ cells))” value ([3]; Treatment day 43)?
**A.** 10.64% and 9.94% and 11.58% and 6.98% and 6.67% and 12.03% and 10.48%

**Q.** What about the “AML cell differentiation (% hCD33 + hCD11b+ (of hCD45+ cells))” value ([3]; Treatment day 58) of the same compound?
**A.** 14.45% and 9.99% and 10.78% and 11.33% and 11.72% and 13.55%

**Q.** What about the “AML cell differentiation (% hCD33 + hCD11b+ (of hCD45+ cells))” value ([3]; Treatment day 77) of the same compound?
**A.** 10.12% and 10.78% and 8.78% and 6.76% and 10.92% and 11.76%

**Q.** What about the “AML cell differentiation (% hCD33 + hCD11b+ (of hCD45+ cells))” value ([3]; Treatment day 98) of the same compound?
**A.** 10.31% and 14.59% and 17.5% and 8.29% and 16.64%

**Q.** And the “AML cell differentiation (% hCD33 + hCD11b+ (of hCD45+ cells))” value ([3]; Treatment day −19)?
**A.** 1.53% and 0% (2×) and 2.59% and 0.27% and 2.72% and 1.16%

**Q.** What about the “% AML cell differentiation (treatment group value)” value ([3]; day 43, group G: azacitidine (1 mg/kg), vehicle 15%) of the same compound?
**A.** 10%

— patent publication US12440493B2, “Combination therapy for treating cancer comprising substituted piperazines” (Eli Lilly and Company, priority 2020, dated 2025)
